Results: patent publication US8722910B2, “Diyne compositions” (Evolva AG, priority 2009, dated 2014)
Values after ≈ are worked out from the molar mass of the structure shown. Like-named read-outs stand apart in the source and are kept apart here. One block for each compound: values may come before it. Numbered stars: 1 amine (or outer) side, 2 acyl side, 3 side chain; on linkers, the order of the positions; unused ones are H or OH. Bridge positions count the residues as written; N and C are the ends. Square brackets hold non-standard residues; d marks the D form. Peptide text beside a SMILES is read from it. * marks the point of attachment. Orn(4R-OH,5R-OH) = O=C([C@H](C[C@@H](O)[C@@H](O)N[*:3])N[*:1])[*:2]; hTyr(3S-OH,4S-OH) = N[C@H](C(=O)O)[C@H](O)[C@@H](O)c1ccc(O)cc1; Pro(3S-OH,4S-Me) = C[C@H]1CN[C@H](C(=O)O)[C@H]1O; Benzoyl(4-octyloxy) = CCCCCCCCOc1ccc(C(=O)*)cc1; Hyp = O=C(O)[C@@H]1C[C@@H](O)CN1

Legend:
[1] = system: Candida albicans; test: In vitro fungicidal activity vs. Candida albicans; conditions: Candida albicans
[2] = system: S. cerevisiae AD1-9; test: IC50 (50% growth inhibition) of diyne compounds; assay type: cell-based; conditions: strain AD1-9; for IC50: Saccharomyces cerevisiae, AD19
Procedure: (§1) The inhibition is partly measured by minimum inhibitory and minimum fungicidal concentration (MIC and MFC, respectively) and partly as IC50 (i.e. concentration required for 50% inhibition).
(§2) IC50 against two different S. cerevisiae strains and two different C. albicans strains by a number of diyne compounds was determined and the results are shown in Table 17.

[3] = system: C. albicans SC5314; test: IC50 (50% growth inhibition) of diyne compounds; assay type: cell-based; conditions: Candida albicans; strain SC5314
Procedure: as §1, §2

[4] = system: S. cerevisiae 2229-5C; test: IC50 (50% growth inhibition) of diyne compounds; assay type: cell-based; conditions: strain 2229-5C; for IC50: Saccharomyces cerevisiae, 22295C; for value in brackets after the IC50 bound (not explained): at the bound concentration
Procedure: as §1, §2

[5] = system: C. albicans DSY1024; test: IC50 (50% growth inhibition) of diyne compounds; assay type: cell-based; conditions: Candida albicans, DSY1024, read-out: C. albicans IC50
Procedure: as §1, §2

[6] = system: (1,3)β-Glucan Synthase; test: Inhibition of fungal cell wall synthesis enzymes; assay type: biochemical; conditions: 20.6 μg/ml
From the text: (§3) Specific inhibitors of each enzyme served as positive controls (Cilofungin, a β-glucan synthase inhibitor and nikkomycin Z, a chitin synthase inhibitor).

[7] = system: Chitin Synthase; test: Inhibition of fungal cell wall synthesis enzymes; assay type: biochemical; conditions: 9.9 μg/ml
From the text: as §3

[8] = system: Trichophyton tonsurans; test: In vitro antifungal activity vs. dermatophytes (MIC/MFC); assay type: cell-based; conditions: 96 h; Trichophyton tonsurans (n = 15); 35° C., 4 days
[9] = system: ergosterol biosynthesis; test: 13C-acetate incorporation into ergosterol; assay type: cell-based, Candida albicans; conditions: drug at about its MIC, added after the first 15 minutes
[10] = system: M. vanbreuseghemii; test: In vitro antifungal activity vs. dermatophytes (MIC/MFC); assay type: cell-based; conditions: 96 h; M. vanbreuseghemii (n = 1); 35° C., 4 days
[11] = system: M. gallinae; test: as above; assay type: cell-based; conditions: 96 h; M. gallinae (n = 1); 35° C., 4 days
[12] = system: all dermatophyte strains; test: MIC and MFC range over all dermatophyte strains tested; assay type: cell-based, dermatophytes; conditions: Table 14 strains
[13] = system: T. terrestre; test: In vitro antifungal activity vs. dermatophytes (MIC/MFC); assay type: cell-based; conditions: 96 h; T. terrestre (n = 1); 35° C., 4 days
[14] = system: M. gypseum; test: as above; assay type: cell-based; conditions: Nannizzia gypsea, 96 h; M. gypseum (n = 1); 35° C., 4 days
[15] = system: T. mentagrophytes; test: as above; assay type: cell-based; conditions: Trichophyton mentagrophytes, 96 h; T. mentagrophytes (n = 15); 35° C., 4 days
[16] = system: Microsporum canis; test: as above; assay type: cell-based; conditions: 96 h; Microsporum canis (n = 15); 35° C., 4 days
[17] = system: T. rubrum, Terbinafine resistant isolates; test: as above; assay type: cell-based; conditions: Trichophyton rubrum, 96 h; T. rubrum (TERB-resistant) (n = 9); 35° C., 4 days
[18] = system: Epidermophyton floccosum; test: as above; assay type: cell-based; conditions: 96 h; Epidermophyton floccosum (n = 15); 35° C., 4 days
[19] = system: M. cookie; test: as above; assay type: cell-based; conditions: 96 h; M. cookie (n = 1); 35° C., 4 days
[20] = system: T. rubrum; test: as above; assay type: cell-based; conditions: Trichophyton rubrum, 96 h; T. rubrum (n = 15); 35° C., 4 days
[21] = system: C. albicans SC5314; test: MIC versus reference Candida strains (broth micro dilution); assay type: cell-based
[22] = system: C. parapsilosis ATCC-22019; test: as above; conditions: Lodderomyces parapsilosis, ATCC22019
[23] = system: C. glabrata ATCC-90030; test: as above; conditions: Nakaseomyces glabratus, ATCC90030
[24] = system: C. parapsilosis ATCC-90018; test: as above; conditions: Lodderomyces parapsilosis, ATCC90018
[25] = system: C. krusei ATCC-6258; test: as above; conditions: Pichia kudriavzevii, ATCC6258
[26] = system: C. albicans ATCC-90028; test: as above; conditions: Candida albicans, ATCC90028
[27] = system: C. tropicalis ATCC-750; test: as above; conditions: Candida tropicalis, ATCC750
[28] = system: C. albicans ATCC-24433; test: as above; conditions: Candida albicans, ATCC24433
[29] = system: OLE1; test: OLE1 expression by real time PCR; assay type: cell-based, S. cerevisiae; conditions: 10 μg/ml oleic acid alone
Procedure: The expression of OLE1 was determined by real time PCR 10, 60, 120 and 240 min after compound addition (Knechtle, P. and Greve, K., 2009). OLE1 transcript levels were calibrated to the expression of the tubulin gene (TUB1) and normalized to the OLE1 expression at 10 min without compound addition (FIG. 17(a)).
The expression of the OLE1 gene was determined by real time PCR 10, 60, 120 and 240 min for the conditions a.-e., as indicated in Table 3 above. OLE1 transcript levels were calibrated to the expression of the tubulin gene (TUB1) and normalized to the OLE1 expression at 10 min without compound addition. See FIG. 17a showing time dependent expressions of OLE1 in response to compound IV″. Conditions a.-e. are listed in Table 3 above, numbers indicate time intervals in minutes. Expressions of OLE1 are given as multiples of the expression at 10 min, condition a. […] 10 μg/ml oleic acid compensated for the OLE1 expression increase caused by 1 μg/ml compound IV alone. Compound IV″ dependent up-regulation of OLE1 expression thus confirms that compound IV″ is acting as an inhibitor of the Ole1 protein. The antagonistic effect of oleic acid found in the susceptibility assays, is reflected mechanistically in this experiment by a down-regulation of the target Ole1 protein through oleic acid.

[30] = system: S. cerevisiae; test: Doubling times of S. cerevisiae; assay type: cell-based; conditions: 10 μg/ml oleic acid alone
Procedure: S. cerevisiae was cultured in the presence of 1 and 10 μg/ml of the potassium salt, 10 μg/ml oleic acid and 1 μg/ml of the potassium salt combined with 10 μg/ml oleic acid.
When S. cerevisiae was cultured in the presence of 1 and 10 μg/ml compound IV″, the doubling times increased to 2.4 h and 4.2 h, respectively, compared to 2 h for the untreated control. The addition of 10 μg/ml oleic acid, sodium salt, to 1 μg/ml compound IV″ reversed the doubling time to 2 h as observed for the untreated control or 10 μg/ml oleic acid, sodium salt alone.

Compound: Nc1nc(=O)[nH]cc1F [5-fluorocytosine]
- Fungicidal Concentration [1]: 1563 ng/mL
- MIC90 ([1]; 24 h, read-out: MIC90 24 h): 0.098 µg/mL (≈ 0.759 µM)
- MIC90 ([1]; 48 h, read-out: MIC90 48 h): 0.195 µg/mL (≈ 1.51 µM)

Compound: O=C(O)CCCCC/C=C\C#CC#Cc1ccco1 [(Z)-12-(furan-2-yl)dodeca-7-en-9,11-diynoic acid]
- IC50 [2]: ~6.25 µg/mL (≈ 24.4 µM)
- IC50 [3]: 50 µg/mL (≈ 195 µM)
- IC50 [4]: ~50 µg/mL (≈ 195 µM)
- IC50 [5]: 1.8 µg/mL (≈ 7.02 µM)

Compound: O=C(O)CCCCCC/C=C\C#CC#Cc1ccco1 [(Z)-13-(furan-2-yl)trideca-8-en-10,12-diynoic acid]
- IC50 [2]: ~50 µg/mL (≈ 185 µM)
- IC50 [3]: > 200 µg/mL
- IC50 [4]: > 200 µg/mL
- value in brackets after the IC50 bound (not explained) [4]: 25%
- IC50 [5]: 0.5 µg/mL (≈ 1.85 µM)

Compound: CCOC(=O)CCCCCCC/C=C\C#CC#Cc1ccco1 [(Z)-ethyl 14-(furan-2-yl)tetradeca-9-en-11,13-diynoate]
- IC50 [2]: 0.7 µg/mL (≈ 2.24 µM)
- IC50 [3]: 9 µg/mL (≈ 28.8 µM)
- IC50 [4]: 8.9 µg/mL (≈ 28.5 µM)

Compound: COC(=O)CCCCCCC/C=C\C#CC#Cc1ccco1 [(Z)-methyl 14-(furan-2-yl)tetradeca-9-en-11,13-diynoate]
- IC50 [2]: > 0.4 µg/mL
- value in brackets after the IC50 bound (not explained) ([2]; at the bound concentration): 6%
- IC50 [3]: 0.4 µg/mL (≈ 1.34 µM)
- IC50 [4]: > 0.4 µg/mL
- value in brackets after the IC50 bound (not explained) [4]: 4%
- IC50 [5]: 0.19 µg/mL (≈ 0.637 µM)

Compound: CCCCCCCCOc1ccc(C(=O)N[C@H]2C[C@@H](O)[C@@H](O)NC(=O)[C@@H]3[C@@H](O)[C@@H](C)CN3C(=O)[C@H]([C@@H](C)O)NC(=O)[C@H]([C@H](O)[C@@H](O)c3ccc(O)cc3)NC(=O)[C@@H]3C[C@@H](O)CN3C(=O)[C@H]([C@@H](C)O)NC2=O)cc1 [Cilofungin, reference compound] ({Benzoyl(4-octyloxy)}-[Orn(4R-OH,5R-OH)]T[Hyp][hTyr(3S-OH,4S-OH)]T[Pro(3S-OH,4S-Me)]; lactam 1-C)
- % Inhibition, (1,3)β-Glucan Synthase [6]: 51%

Compound: C[C@@H]1C[C@@H]([C@H](O)CC2CC(=O)NC(=O)C2)C(=O)[C@@H](C)C1 [Cycloheximide]
- Fungicidal Concentration [1]: 12,800,000 ng/ml
- MIC90 ([1]; 24 h, read-out: MIC90 24 h): 1600 µg/mL (≈ 5690 µM)
- MIC90 ([1]; 48 h, read-out: MIC90 48 h): 12800 µg/mL (≈ 45500 µM)

Compound: CC(=O)N1CCN(c2ccc(OCC3COC(Cn4ccnc4)(c4ccc(Cl)cc4Cl)O3)cc2)CC1 (stereo not drawn) [Ketoconazole]
- Fungicidal Concentration [1]: >800,000 ng/ml
- MIC90 ([1]; 24 h, read-out: MIC90 24 h): 50 µg/mL (≈ 94.1 µM)
- MIC90 ([1]; 48 h, read-out: MIC90 48 h): > 800 µg/mL

Compound: C[C@@H]([C@H](N)C(=O)N[C@H](C(=O)O)[C@H]1O[C@@H](n2ccc(=O)[nH]c2=O)[C@H](O)[C@@H]1O)[C@H](O)c1ccc(O)cn1 [Nikkomycin Z, reference compound]
- % Inhibition, Chitin Synthase [7]: 61%

- MIC [8]: 8 ng/mL (≈ 0.0275 µM)
- MIC [10]: 0.015 µg/mL (≈ 0.0515 µM)
- MIC [11]: 8 ng/mL (≈ 0.0275 µM)
- MIC range against all dermatophyte strains [12]: 2 to 4000 ng/mL
- MIC [13]: 8 ng/mL (≈ 0.0275 µM)
- MIC [14]: 4 ng/mL (≈ 0.0137 µM)
- MIC [15]: 8 ng/mL (≈ 0.0275 µM)
- MIC [16]: 0.015 µg/mL (≈ 0.0515 µM)
- MIC [17]: 4 µg/mL (≈ 13.7 µM)
- MIC [18]: 0.015 µg/mL (≈ 0.0515 µM)
- MIC [19]: 8 ng/mL (≈ 0.0275 µM)
- MIC [20]: 2 ng/mL (≈ 0.00686 µM)
Compound: CN(C/C=C/C#CC(C)(C)C)Cc1cccc2ccccc12 [Terbinafine, reference compound]
- net biosynthesis of ergosterol (13C-acetate incorporation) [9]: inhibited the incorporation of acetate into ergosterol

Compound: O=C(O)CCCCCCC/C=C/C#CC#Cc1ccco1 [VIII″, (E)-14-(furan-2-yl)tetradeca-9-en-11,13-diynoic acid]
- IC50 [2]: 0.4 µg/mL (≈ 1.41 µM)
- IC50 [3]: 3 µg/mL (≈ 10.6 µM)
- IC50 [4]: 2.7 µg/mL (≈ 9.5 µM)
- IC50 [5]: 0.004 µg/mL (≈ 0.0141 µM)
- MIC [21]: 0.15 µg/mL (≈ 0.528 µM)

- MIC [22]: > 10.2 µg/mL
- MIC [23]: > 10.2 µg/mL
- MIC [24]: > 10.2 µg/mL
- MIC [25]: > 10.2 µg/mL
- MIC [26]: > 10.2 µg/mL
- MIC [21]: > 10.2 µg/mL
- MIC [27]: > 10.2 µg/mL
- MIC [28]: > 10.2 µg/mL
Compound: O=C(O)CCCCCCCc1ccccc1C#CC#Cc1ccco1 [VII″, 8-(2-(4-(furan-2-yl)buta-1,3-diynyl)phenyl)octanoic acid]

- MIC [22]: > 10.2 µg/mL
- MIC [23]: > 10.2 µg/mL
- MIC [24]: > 10.2 µg/mL
- MIC [25]: > 10.2 µg/mL
- MIC [26]: > 10.2 µg/mL
- MIC [21]: > 10.2 µg/mL
- MIC [27]: > 10.2 µg/mL
- MIC [28]: > 10.2 µg/mL
Compound: Cc1cc(C#CC#C/C=C\CCCCCCCC(=O)O)oc1C [VI″, (Z)-14-(4,5-dimethylfuran-2-yl)tetradeca-9-en-11,13-diynoic acid]

Compound: CCCCCCCC/C=C\CCCCCCCC(=O)O [oleic acid, reference compound]
- decrease of the expression level of OLE1 [29]: about 6 fold
- Doubling time [30]: 2.0 h
- Doubling time ([30]; sodium salt): 2 h
